# Reference: patent US11407767B2, “Heterocyclyl substituted pyrrolopyridines that are inhibitors of the CDK12 kinase” (The University of Nottingham, priority 2017, dated 2022)
# Counter-ions that a name gives are not always drawn.
# Columns and labels:
# [1] = target: CDK12/CycK (Homo sapiens, UniProt Q9NYV4); assay: Inhibition of CDK12 (ADP-Glo kinase assay); type: biochemical; details: 60 nM CDK12/CycK, 30 minutes pre-incubation, 1 μM ATP, 0.5 μM RBER-IRStide substrate, 1 h at 25° C., read-out: CDK12/cyclin K IC50
# Sequence of CDK12/CycK (Q9NYV4 whole entry): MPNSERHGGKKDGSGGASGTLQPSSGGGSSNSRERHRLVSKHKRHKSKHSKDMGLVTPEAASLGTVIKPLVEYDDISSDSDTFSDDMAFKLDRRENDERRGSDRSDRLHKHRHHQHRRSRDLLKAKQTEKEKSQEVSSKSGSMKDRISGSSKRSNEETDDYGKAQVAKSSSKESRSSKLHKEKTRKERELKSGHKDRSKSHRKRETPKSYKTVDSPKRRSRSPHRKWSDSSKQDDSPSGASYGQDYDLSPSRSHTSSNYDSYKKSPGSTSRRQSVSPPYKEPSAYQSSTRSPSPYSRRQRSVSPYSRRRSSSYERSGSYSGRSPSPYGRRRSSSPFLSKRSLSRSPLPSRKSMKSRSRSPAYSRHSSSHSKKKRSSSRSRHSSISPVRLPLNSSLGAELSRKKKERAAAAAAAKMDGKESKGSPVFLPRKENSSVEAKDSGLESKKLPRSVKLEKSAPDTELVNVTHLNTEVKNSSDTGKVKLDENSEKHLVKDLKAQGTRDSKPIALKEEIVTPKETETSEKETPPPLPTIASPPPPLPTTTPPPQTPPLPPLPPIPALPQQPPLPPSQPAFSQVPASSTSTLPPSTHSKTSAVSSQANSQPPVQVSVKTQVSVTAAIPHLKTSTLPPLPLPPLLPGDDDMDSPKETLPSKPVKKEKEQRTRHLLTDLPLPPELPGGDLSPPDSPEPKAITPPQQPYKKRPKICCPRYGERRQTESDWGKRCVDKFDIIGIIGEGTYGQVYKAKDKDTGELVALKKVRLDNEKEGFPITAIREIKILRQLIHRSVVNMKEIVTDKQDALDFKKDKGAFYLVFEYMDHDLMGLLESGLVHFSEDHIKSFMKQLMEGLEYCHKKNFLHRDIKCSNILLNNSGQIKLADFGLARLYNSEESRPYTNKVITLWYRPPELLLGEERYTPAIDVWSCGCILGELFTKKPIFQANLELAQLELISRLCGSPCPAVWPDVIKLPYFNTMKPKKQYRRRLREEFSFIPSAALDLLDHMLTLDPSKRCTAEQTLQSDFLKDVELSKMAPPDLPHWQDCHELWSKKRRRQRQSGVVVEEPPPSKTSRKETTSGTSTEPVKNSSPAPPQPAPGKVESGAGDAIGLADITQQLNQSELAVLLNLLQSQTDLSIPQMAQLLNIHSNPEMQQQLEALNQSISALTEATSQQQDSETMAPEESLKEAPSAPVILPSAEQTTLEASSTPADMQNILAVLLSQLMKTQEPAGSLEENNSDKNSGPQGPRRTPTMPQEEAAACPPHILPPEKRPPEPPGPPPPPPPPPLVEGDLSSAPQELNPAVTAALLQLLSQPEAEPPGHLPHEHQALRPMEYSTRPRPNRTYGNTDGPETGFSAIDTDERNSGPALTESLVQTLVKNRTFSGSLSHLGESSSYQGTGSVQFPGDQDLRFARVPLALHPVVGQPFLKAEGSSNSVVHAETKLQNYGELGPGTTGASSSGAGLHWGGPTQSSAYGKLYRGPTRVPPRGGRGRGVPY
# Sequence of CDK12/CycK (O75909 whole entry partner): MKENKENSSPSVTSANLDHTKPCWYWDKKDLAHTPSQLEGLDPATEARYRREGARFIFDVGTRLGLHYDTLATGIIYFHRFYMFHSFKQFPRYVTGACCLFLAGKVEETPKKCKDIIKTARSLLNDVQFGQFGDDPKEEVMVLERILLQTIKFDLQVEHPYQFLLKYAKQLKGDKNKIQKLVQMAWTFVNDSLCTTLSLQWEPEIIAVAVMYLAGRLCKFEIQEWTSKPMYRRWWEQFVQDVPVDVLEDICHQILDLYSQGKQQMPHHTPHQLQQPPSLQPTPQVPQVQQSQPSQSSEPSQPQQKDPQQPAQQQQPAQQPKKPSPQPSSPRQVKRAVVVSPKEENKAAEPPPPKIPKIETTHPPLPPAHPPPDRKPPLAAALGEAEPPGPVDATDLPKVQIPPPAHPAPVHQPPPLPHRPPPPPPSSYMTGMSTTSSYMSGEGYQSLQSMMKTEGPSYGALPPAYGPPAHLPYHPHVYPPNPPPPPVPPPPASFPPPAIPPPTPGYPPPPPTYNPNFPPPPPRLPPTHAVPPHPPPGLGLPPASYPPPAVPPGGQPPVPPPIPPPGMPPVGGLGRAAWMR
# Outline: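 Compounds pre-incubated 30 min with 60 nM CDK12/CycK in HEPES pH 7.5 buffer with Mg2+/Mn2+, 1% DMSO final. Reaction started with 1 μM ATP and 0.5 μM RBER-IRStide, run 1 h at 25 °C; ADP-Glo luminescence, no-kinase blank subtracted, IC50 from sigmoidal fit of % inhibition.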
# [2] = system: DM1 fibroblasts; assay: Nuclear foci assay; type: cell-based; details: Fibroblast; DM1 fibroblasts treated for 24 hours, 11 point dilution 20 μM-19 nM, in situ hybridisation with cy3 labelled CAG10 probe
# Experimental: DM1 fibroblasts were treated with compounds in an 11 point dilution series from 20 μM-19 nM for 24 hours. Following treatment, fluorescent in situ hybridisation was performed with a cy3 labelled CAG10 probe, to visualize nuclear foci and cells were analysed on a Molecular Devices plate reader with customised MetaExpress software (Ketley, A. et al. (2014). Hum Mol Genet, 23: 1551-1562). Compounds that reduced nuclear foci in a concentration dependent manner, compared to DMSO treated cells were identified.
Compound,IC50 [1] [µM],IC50 [2] [µM]
"CC(C)=CC(=O)N1CCC[C@H]1C(=O)NCCc1cc2c(-c3cnn4ncccc34)ccnc2[nH]1 [Example 42, (S)-1-(3-Methylbut-2-enoyl)-N-(2-(4-(pyrazolo[1,5-b]pyridazin-3-yl)-1H-pyrrolo[2,3-b]pyridin-2-yl)ethyl)pyrrolidine-2-carboxamide]",0.1 to 1,1 to 10
"C/C=C/C(=O)N1CCC[C@H]1C(=O)NCCc1cc2c(-c3cnn4ncccc34)ccnc2[nH]1 [Example 44, (S,E)-1-(But-2-enoyl)-N-(2-(4-(pyrazolo[1,5-b]pyridazin-3-yl)-1H-pyrrolo[2,3-b]pyridin-2-yl)ethyl)pyrrolidine-2-carboxamide]",1 to 30,1 to 10
"CN(C)C/C=C/C(=O)N1CC[C@@H](OCC(=O)N2CCC(c3cc4c(-c5cnn6ncccc56)ccnc4[nH]3)C2)C1 (stereo partly drawn) [Example 71, (E)-4-(Dimethylamino)-1-((3R)-3-(2-oxo-2-(3-(4-(pyrazolo[1,5-b]pyridazin-3-yl)-1H-pyrrolo[2,3-b]pyridin-2-yl)pyrrolidin-1-yl)ethoxy)pyrrolidin-1-yl)but-2-en-1-one]",0.1 to 1,1 to 10
"C=CC(=O)N1CCC[C@H]1C(=O)N1CC[C@@H](c2cc3c(-c4cnn5ncccc45)ccnc3[nH]2)C1 [Example 161, 1-((S)-2-((R)-3-(4-(Pyrazolo[1,5-b]pyridazin-3-yl)-1H-pyrrolo[2,3-b]pyridin-2-yl)pyrrolidine-1-carbonyl)pyrrolidin-1-yl)prop-2-en-1-one]",0.1 to 1,< 1
"NC(=O)c1cc2c(-c3cnn4ncccc34)ccnc2[nH]1 [Example 6, 4-(Pyrazolo[1,5-b]pyridazin-3-yl)-1H-pyrrolo[2,3-b]pyridine-2-carboxamide]",0.1 to 1,1 to 10
"C=CC(=O)N1CCC[C@H]1C(=O)OCCc1cc2c(-c3cnn4ncccc34)ccnc2[nH]1 [Example 213, 2-(4-(Pyrazolo[1,5-b]pyridazin-3-yl)-1H-pyrrolo[2,3-b]pyridin-2-yl)ethyl acryloyl-L-prolinate]",0.1 to 1,< 1
"C=CC(=O)NC(Cc1ccccc1)C(=O)NCCc1cc2c(-c3cnn4ncccc34)ccnc2[nH]1 (centres unmarked) [Example 211, N-(1-Oxo-3-phenyl-1-((2-(4-(pyrazolo[1,5-b]pyridazin-3-yl)-1H-pyrrolo[2,3-b]pyridin-2-yl)ethyl)amino)propan-2-yl)acrylamide]",0.1 to 1,1 to 10
"C=CC(=O)NC(C)C(=O)NCCc1cc2c(-c3cnn4ncccc34)ccnc2[nH]1 (centres unmarked) [Example 212, N-(1-oxo-1-((2-(4-(pyrazolo[1,5-b]pyridazin-3-yl)-1H-pyrrolo[2,3-b]pyridin-2-yl)ethyl)amino)propan-2-yl)acrylamide]",0.1 to 1,1 to 10
"c1cc(-c2ccc3[nH]nnc3c2)c2cc[nH]c2n1 [Example 21, 5-(1H-Pyrrolo[2,3-b]pyridin-4-yl)-1H-benzo[d][1,2,3]triazole]",1 to 30,10 to 100
"C=CC(=O)Nc1ccc(C(=O)N2CCN(Cc3cc4c(-c5cnn6ncccc56)ccnc4[nH]3)CC2)cc1 [Example 112, N-(4-(4-((4-(Pyrazolo[1,5-b]pyridazin-3-yl)-1H-pyrrolo[2,3-b]pyridin-2-yl)methyl)piperazine-1-carbonyl)phenyl)acrylamide]",0.1 to 1,1 to 10
"O=C(NCCc1cc2c(-c3cnn4ncccc34)ccnc2[nH]1)[C@H]1CCCN1C(=O)CO [Example 79, (R)-1-(2-Hydroxyacetyl)-N-(2-(4-(pyrazolo[1,5-b]pyridazin-3-yl)-1H-pyrrolo[2,3-b]pyridin-2-yl)ethyl)pyrrolidine-2-carboxamide]",0.1 to 1,
"O=C(NCc1cc2c(-c3cnn4ncccc34)ccnc2[nH]1)C1CC1 [Example 116, N-((4-(Pyrazolo[1,5-b]pyridazin-3-yl)-1H-pyrrolo[2,3-b]pyridin-2-yl)methyl)cyclopropanecarboxamide]",1 to 30,
"C=CC(=O)N1CC[C@@H](C(=O)NCc2cc3c(-c4cnn5ncccc45)ccnc3[nH]2)C1 [Example 179, (R)-1-Acryloyl-N-((4-(pyrazolo[1,5-b]pyridazin-3-yl)-1H-pyrrolo[2,3-b]pyridin-2-yl)methyl)pyrrolidine-3-carboxamide]",1 to 30,
"C=CC(=O)N1CCO[C@@H](C(=O)NCCc2cc3c(-c4cnn5ncccc45)ccnc3[nH]2)C1 (single isomer, unassigned) [Example 61]",< 0.1,
"CC(C)(C)OC(=O)N1CCC(c2cc3c(-c4cnn5ncccc45)ccnc3[nH]2)C1 (centres unmarked) [Example 119, tert-Butyl 3-(4-(pyrazolo[1,5-b]pyridazin-3-yl)-1H-pyrrolo[2,3-b]pyridin-2-yl)pyrrolidine-1-carboxylate]",0.1 to 1,
"NCCc1cc2c(-c3cccnc3)ccnc2[nH]1 [Example 104, 2-(4-(Pyridin-3-yl)-1H-pyrrolo[2,3-b]pyridin-2-yl)ethan-1-amine]",1 to 30,
"CN(C)CCNC(=O)c1cc2c(-c3cnn4ncccc34)ccnc2[nH]1 [Example 5, N-(2-(Dimethylamino)ethyl)-4-(pyrazolo[1,5-b]pyridazin-3-yl)-1H-pyrrolo[2,3-b]pyridine-2-carboxamide]",1 to 30,
"C=CC(=O)N1CCC[C@H]1C(=O)N(C)CCc1cc2c(-c3cnn4ncccc34)ccnc2[nH]1 [Example 46, (S)-1-Acryloyl-N-methyl-N-(2-(4-(pyrazolo[1,5-b]pyridazin-3-yl)-1H-pyrrolo[2,3-b]pyridin-2-yl)ethyl)pyrrolidine-2-carboxamide]",0.1 to 1,

# Continued, in another order:
IC50 [1] [µM],Compound,IC50 [2] [µM]
< 0.1,"O=C(CCl)Nc1cccc(C(=O)N2CCC(c3cc4c(-c5cnn6ncccc56)ccnc4[nH]3)C2)c1 (centres unmarked) [Example 145, 2-Chloro-N-(3-(3-(4-(pyrazolo[1,5-b]pyridazin-3-yl)-1H-pyrrolo[2,3-b]pyridin-2-yl)pyrrolidine-1-carbonyl)phenyl)acetamide]",< 1
< 0.1,"C#CC(=O)Nc1cccc(C(=O)N2CCC(c3cc4c(-c5cnn6ncccc56)ccnc4[nH]3)C2)c1 (centres unmarked) [Example 146, N-(3-(3-(4-(Pyrazolo[1,5-b]pyridazin-3-yl)-1H-pyrrolo[2,3-b]pyridin-2-yl)pyrrolidine-1-carbonyl)phenyl)propiolamide]",< 1
< 0.1,"CN(C)C/C=C/C(=O)Nc1ccc(C(=O)N2CCC(c3cc4c(-c5cnn6ncccc56)ccnc4[nH]3)C2)cc1 (centres unmarked) [Example 127, (E)-4-(Dimethylamino)-N-(4-(3-(4-(pyrazolo[1,5-b]pyridazin-3-yl)-1H-pyrrolo[2,3-b]pyridin-2-yl)pyrrolidine-1-carbonyl)phenyl)but-2-enamide Formate Salt]",< 1
< 0.1,"C=CC(=O)N1CCC[C@@H]1C(=O)NCCc1cc2c(-c3cnn4ncccc34)c(Cl)cnc2[nH]1 [Example 54, (R)-1-Acryloyl-N-(2-(5-chloro-4-(pyrazolo[1,5-b]pyridazin-3-yl)-1H-pyrrolo[2,3-b]pyridin-2-yl)ethyl)pyrrolidine-2-carboxamide]",< 1
< 0.1,"C=CC(=O)Nc1cc(C(=O)N2CCC(c3cc4c(-c5cnn6ncccc56)ccnc4[nH]3)C2)ccc1OC (centres unmarked) [Example 204, N-(2-Methoxy-5-(3-(4-(pyrazolo[1,5-b]pyridazin-3-yl)-1H-pyrrolo[2,3-b]pyridin-2-yl)pyrrolidine-1-carbonyl)phenyl)acrylamide]",< 1
< 0.1,"C=CC(=O)N1CCC[C@@H](C(=O)NCCc2cc3c(-c4cnn5ncccc45)ccnc3[nH]2)C1 [Example 34, (R)-1-Acryloyl-N-(2-(4-(pyrazolo[1,5-b]pyridazin-3-yl)-1H-pyrrolo[2,3-b]pyridin-2-yl)ethyl)piperidine-3-carboxamide]",1 to 10
< 0.1,"C=CC(=O)N1CC2(CC2)C[C@H]1C(=O)NCCc1cc2c(-c3cnn4ncccc34)ccnc2[nH]1 [Example 208, (S)-5-Acryloyl-N-(2-(4-(pyrazolo[1,5-b]pyridazin-3-yl)-1H-pyrrolo[2,3-b]pyridin-2-yl)ethyl)-5-azaspiro[2.4]heptane-6-carboxamide]",1 to 10
< 0.1,"C=CC(=O)N1CCCC[C@H]1C(=O)NCCc1cc2c(-c3cnn4ncccc34)ccnc2[nH]1 [Example 92, (S)-1-Acryloyl-N-(2-(4-(pyrazolo[1,5-b]pyridazin-3-yl)-1H-pyrrolo[2,3-b]pyridin-2-yl)ethyl)piperidine-2-carboxamide]",1 to 10
< 0.1,"O=C([C@@H]1CCCN1C(=O)CCl)N1CCC(c2cc3c(-c4cnn5ncccc45)ccnc3[nH]2)C1 (stereo partly drawn) [Example 155, 2-Chloro-1-((2S)-2-(3-(4-(pyrazolo[1,5-b]pyridazin-3-yl)-1H-pyrrolo[2,3-b]pyridin-2-yl)pyrrolidine-1-carbonyl)pyrrolidin-1-yl)ethan-1-one]",
< 0.1,"C=CC(=O)Nc1cccc(C(=O)NCCCc2cc3c(-c4cnn5ncccc45)ccnc3[nH]2)c1 [Example 215, 3-Acrylamido-N-(3-(4-(pyrazolo[1,5-b]pyridazin-3-yl)-1H-pyrrolo[2,3-b]pyridin-2-yl)propyl)benzamide]",
< 0.1,"O=C(CCl)N1CCC(C(=O)N2CCC(c3cc4c(-c5cnn6ncccc56)ccnc4[nH]3)C2)CC1 (centres unmarked) [Example 158, 2-Chloro-1-(4-(3-(4-(pyrazolo[1,5-b]pyridazin-3-yl)-1H-pyrrolo[2,3-b]pyridin-2-yl)pyrrolidine-1-carbonyl)piperidin-1-yl)ethan-1-one]",
